{
  "source": "paper PMC9388697",
  "about": "(Biometals : an international journal on the role of metal …, 2022)",
  "molecular_target": "Mar2 (Thermoanaerobacterium thermosaccharolyticum, UniProt D9TSN9, K173F/K351T)",
  "assay": "lactate racemase activity, L-lactate determined with Megazyme kit",
  "type": "biochemical",
  "conditions": "200 mM D-lactate; in vitro synthesized NPN; 35 °C; 30 min",
  "data": [
    {"smiles": "C[C@@H](O)C(=O)O", "note": "[D-lactate]", "values": [
      {"measurement": "% of TtLarA activity", "value": "a small but substantial lactate racemase (Lar) activity was detected for the purified enzymes"}
    ]}
  ]
}
